# Organism: Rattus norvegicus
# Test: DrugMatrix - Regimen: Daily Repeat
# Format: toxicity, organism-based, Sprague-Dawley
# Set-up: regimen Daily Repeat, gender Male, age 6-8 weeks
# Details: in vivo, po, route oral GAVAGE, […]; for ABSOLUTE BASOPHIL / ABSOLUTE EOSINOPHIL / ABSOLUTE LYMPHOCYTE / ABSOLUTE MONOCYTE / ABSOLUTE SEGMENTED NEUTROPHIL / BASOPHIL / EOSINOPHIL / ERYTHROCYTE COUNT / HEMATOCRIT / HEMOGLOBIN / LEUKOCYTE COUNT / LYMPHOCYTE / MEAN CORPUSCULAR HEMOGLOBIN / MEAN CORPUSCULAR HEMOGLOBIN CONCENTRATION / MEAN CORPUSCULAR VOLUME / MONOCYTE / NEUTROPHIL / NUCLEATED RED BLOOD CELLS / PLATELET COUNT: tissue Blood; for ALANINE AMINOTRANSFERASE / ALKALINE PHOSPHATASE / ASPARTATE AMINOTRANSFERASE / BLOOD UREA NITROGEN / CARBON DIOXIDE / CHLORIDE / CHOLESTEROL / CREATINE PHOSPHOKINASE / CREATININE / GLUCOSE / LACTATE DEHYDROGENASE / LIPASE / PHOSPHORUS / POTASSIUM / SODIUM / TOTAL BILIRUBIN / TOTAL PROTEIN / URIC ACID: tissue Plasma
# [1] = 20.4 mg/kg, 72 h, dose level High, time 3 day
# [2] = 20.4 mg/kg, 120 h, dose level High, time 5 day
# [3] = 72 h, dose 2.7 mg/Kg, dose level Low, time 3 day
# [4] = 120 h, dose 2.7 mg/Kg, dose level Low, time 5 day
structure (smiles),measurement,setting,value
CC(C(=O)O)c1cccc(C(=O)c2ccccc2)c1 (stereo not drawn) [KETOPROFEN],ABSOLUTE BASOPHIL,[1],0 CELLS/uL
same,ABSOLUTE EOSINOPHIL,[1],0 CELLS/uL
same,ABSOLUTE LYMPHOCYTE,[1],7267.67 CELLS/uL
same,ABSOLUTE MONOCYTE,[1],314.33 CELLS/uL
same,ABSOLUTE SEGMENTED NEUTROPHIL,[1],1618 CELLS/uL
same,BASOPHIL,[1],0%
same,EOSINOPHIL,[1],0%
same,ERYTHROCYTE COUNT,[1],4.75 x10E6/uL
same,HEMATOCRIT,[1],28.6%
same,HEMOGLOBIN,[1],11.67 G/DL
same,LEUKOCYTE COUNT,[1],9.2 x10E3/uL
same,LYMPHOCYTE,[1],76.67%
same,MEAN CORPUSCULAR HEMOGLOBIN,[1],24.67 pg
same,MEAN CORPUSCULAR HEMOGLOBIN CONCENTRATION,[1],40.8 G/DL
same,MEAN CORPUSCULAR VOLUME,[1],60.43 fL
same,MONOCYTE,[1],3.33%
same,NEUTROPHIL,[1],20%
same,NUCLEATED RED BLOOD CELLS,[1],0.67 /100WBC
same,PLATELET COUNT,[1],1067.67 x10E3/uL
same,ALANINE AMINOTRANSFERASE,[1],31.67 u/L
same,ALKALINE PHOSPHATASE,[1],297.33 u/L
same,ASPARTATE AMINOTRANSFERASE,[1],95 u/L
same,BLOOD UREA NITROGEN,[1],15.33 mg/dL
same,CARBON DIOXIDE,[1],25.67 mmol/L
same,CHLORIDE,[1],101.67 MEQ/L
same,CHOLESTEROL,[1],70.33 mg/dL
same,CREATINE PHOSPHOKINASE,[1],362.33 u/L
same,CREATININE,[1],0.15 mg/dL
same,GLUCOSE,[1],138.67 mg/dL
same,LACTATE DEHYDROGENASE,[1],114 u/L
same,LIPASE,[1],9.67 u/L
same,PHOSPHORUS,[1],13.07 mg/dL
same,POTASSIUM,[1],6.63 MEQ/L
same,SODIUM,[1],141.23 MEQ/L
same,TOTAL BILIRUBIN,[1],0.1 mg/dL
same,TOTAL PROTEIN,[1],4.57 G/DL
same,URIC ACID,[1],2.1 mg/dL
same,ABSOLUTE BASOPHIL,[2],0 CELLS/uL
same,ABSOLUTE EOSINOPHIL,[2],0 CELLS/uL
same,ABSOLUTE LYMPHOCYTE,[2],10025.5 CELLS/uL
same,ABSOLUTE MONOCYTE,[2],600.5 CELLS/uL
same,ABSOLUTE SEGMENTED NEUTROPHIL,[2],1824 CELLS/uL
same,BASOPHIL,[2],0%
same,EOSINOPHIL,[2],0%
same,ERYTHROCYTE COUNT,[2],4.91 x10E6/uL
same,HEMATOCRIT,[2],29.7%
same,HEMOGLOBIN,[2],12.2 G/DL
same,LEUKOCYTE COUNT,[2],12.45 x10E3/uL
same,LYMPHOCYTE,[2],76%
same,MEAN CORPUSCULAR HEMOGLOBIN,[2],25 pg
same,MEAN CORPUSCULAR HEMOGLOBIN CONCENTRATION,[2],41.05 G/DL
same,MEAN CORPUSCULAR VOLUME,[2],60.85 fL
same,MONOCYTE,[2],4.5%
same,NEUTROPHIL,[2],19.5%
same,NUCLEATED RED BLOOD CELLS,[2],1 /100WBC
same,PLATELET COUNT,[2],1944 x10E3/uL
same,ALANINE AMINOTRANSFERASE,[2],58 u/L
same,ALKALINE PHOSPHATASE,[2],430 u/L
same,ASPARTATE AMINOTRANSFERASE,[2],128 u/L
same,BLOOD UREA NITROGEN,[2],17 mg/dL
same,CARBON DIOXIDE,[2],21 mmol/L
same,CHLORIDE,[2],99.5 MEQ/L
same,CHOLESTEROL,[2],61.5 mg/dL
same,CREATINE PHOSPHOKINASE,[2],682 u/L
same,CREATININE,[2],0.13 mg/dL
same,GLUCOSE,[2],127.5 mg/dL
same,LACTATE DEHYDROGENASE,[2],391.5 u/L
same,LIPASE,[2],20.5 u/L
same,PHOSPHORUS,[2],14.15 mg/dL
same,POTASSIUM,[2],8.29 MEQ/L
same,SODIUM,[2],138.9 MEQ/L
same,TOTAL BILIRUBIN,[2],0.15 mg/dL
same,TOTAL PROTEIN,[2],5.05 G/DL
same,URIC ACID,[2],3.2 mg/dL
same,ABSOLUTE BASOPHIL,[3],0 CELLS/uL
same,ABSOLUTE EOSINOPHIL,[3],0 CELLS/uL
same,ABSOLUTE LYMPHOCYTE,[3],15950 CELLS/uL
same,ABSOLUTE MONOCYTE,[3],68.67 CELLS/uL
same,ABSOLUTE SEGMENTED NEUTROPHIL,[3],1814.67 CELLS/uL
same,BASOPHIL,[3],0%
same,EOSINOPHIL,[3],0%
same,ERYTHROCYTE COUNT,[3],5.46 x10E6/uL
same,HEMATOCRIT,[3],34.7%
same,HEMOGLOBIN,[3],13.87 G/DL
same,LEUKOCYTE COUNT,[3],17.83 x10E3/uL
same,LYMPHOCYTE,[3],89.67%
same,MEAN CORPUSCULAR HEMOGLOBIN,[3],25.4 pg
same,MEAN CORPUSCULAR HEMOGLOBIN CONCENTRATION,[3],39.97 G/DL
same,MEAN CORPUSCULAR VOLUME,[3],63.5 fL
same,MONOCYTE,[3],0.33%
same,NEUTROPHIL,[3],10%
same,NUCLEATED RED BLOOD CELLS,[3],0.67 /100WBC
same,PLATELET COUNT,[3],1051 x10E3/uL
same,ALANINE AMINOTRANSFERASE,[3],83.33 u/L
same,ALKALINE PHOSPHATASE,[3],375.67 u/L
same,ASPARTATE AMINOTRANSFERASE,[3],100.33 u/L
same,BLOOD UREA NITROGEN,[3],10.33 mg/dL
same,CARBON DIOXIDE,[3],28.67 mmol/L
same,CHLORIDE,[3],99.67 MEQ/L
same,CHOLESTEROL,[3],74 mg/dL
same,CREATINE PHOSPHOKINASE,[3],203.67 u/L
same,CREATININE,[3],0.12 mg/dL
same,GLUCOSE,[3],169 mg/dL
same,LACTATE DEHYDROGENASE,[3],131.33 u/L
same,LIPASE,[3],12 u/L
same,PHOSPHORUS,[3],11.9 mg/dL
same,POTASSIUM,[3],6.6 MEQ/L
same,SODIUM,[3],141.63 MEQ/L
same,TOTAL BILIRUBIN,[3],0.2 mg/dL
same,TOTAL PROTEIN,[3],5.5 G/DL
same,URIC ACID,[3],1.3 mg/dL
same,ABSOLUTE BASOPHIL,[4],0 CELLS/uL
same,ABSOLUTE EOSINOPHIL,[4],0 CELLS/uL
same,ABSOLUTE LYMPHOCYTE,[4],13468.33 CELLS/uL
same,ABSOLUTE MONOCYTE,[4],227.67 CELLS/uL
same,ABSOLUTE SEGMENTED NEUTROPHIL,[4],2570.67 CELLS/uL
same,BASOPHIL,[4],0%
same,EOSINOPHIL,[4],0%
same,ERYTHROCYTE COUNT,[4],5.73 x10E6/uL
same,HEMATOCRIT,[4],35.13%
same,HEMOGLOBIN,[4],14.03 G/DL
same,LEUKOCYTE COUNT,[4],16.27 x10E3/uL
same,LYMPHOCYTE,[4],83%
same,MEAN CORPUSCULAR HEMOGLOBIN,[4],24.5 pg
same,MEAN CORPUSCULAR HEMOGLOBIN CONCENTRATION,[4],39.97 G/DL
same,MEAN CORPUSCULAR VOLUME,[4],61.33 fL
same,MONOCYTE,[4],1.33%
same,NEUTROPHIL,[4],15.67%
same,NUCLEATED RED BLOOD CELLS,[4],0 /100WBC
same,PLATELET COUNT,[4],1235.67 x10E3/uL
same,ALANINE AMINOTRANSFERASE,[4],64.67 u/L
same,ALKALINE PHOSPHATASE,[4],363.67 u/L
same,ASPARTATE AMINOTRANSFERASE,[4],74 u/L
same,BLOOD UREA NITROGEN,[4],13.67 mg/dL
same,CARBON DIOXIDE,[4],31.67 mmol/L
same,CHLORIDE,[4],100.67 MEQ/L
same,CHOLESTEROL,[4],64.33 mg/dL
same,CREATINE PHOSPHOKINASE,[4],125.67 u/L
same,CREATININE,[4],0.17 mg/dL
same,GLUCOSE,[4],146.67 mg/dL
same,LACTATE DEHYDROGENASE,[4],78 u/L
same,LIPASE,[4],11.67 u/L
same,PHOSPHORUS,[4],9.8 mg/dL
same,POTASSIUM,[4],6.54 MEQ/L
same,SODIUM,[4],143.77 MEQ/L
same,TOTAL BILIRUBIN,[4],0.13 mg/dL
same,TOTAL PROTEIN,[4],5.8 G/DL
same,URIC ACID,[4],1.17 mg/dL

# Reference: ChEMBL document CHEMBL3885881, “DrugMatrix”
